The source of these data is patent US4366160A, “Imidazole derivatives” (Hoffmann-La Roche Inc., priority 1980, dated 1982).

Structures are written as SMILES.

Common to all, as to assay type: in vivo
For one series, the system named is writhing (mouse). The series is described as follows: Writhing test (mouse), 60 minutes after peroral administration. The settings on record: po, 1 h, orally, 60 minutes after administration, 50% of animals show no more than one writhing. The method, then:
In carrying out the experiment there are used in each case 8 male mice (20-22 g) per dosage. 60 minutes after the oral administration of the test substance 10 ml/kg of the test solution is administered to the animals by intraperitoneal injection. After a latent period of 5 minutes, the number of animals in which during 5 minutes no more than one characteristic writhing symptom, that is, convulsive stretching movement of the body, occurs is registered. The ED 50 indicates the oral dosage in mg/kg at which 50% of the animals show no more than one writhing.
60 minutes after peroral administration
(In general: In writhing tests, fewer writhes than in controls are read as antinociception.)

The subject of the next series is Anaesthetized cat. The series is described as follows: Blood pressure and heart rate in the anaesthetized cat (i.v.). Particulars: maximum variation from control. Here is the method:
(§1) The action of the test compounds on the activity in the sympathetic nervous system is investigated on cats in urethane narcosis. The preganglionic sympathetic activity is derived by means of biopolar platinum electrodes from the splanchnic nerve and the postganglionic sympathetic activity is derived from a nerve branch to the kidney according to the method of G. Hausler [Naunyn-Schmiedeberg's Arch. Pharmacol. 286, 97-111 (1974)]. Moreover, there is measured the arterial blood pressure from the femoral artery as well as the heart rate. The test substance is injected intravenously. When a test substance in blood pressure-lowering dosages inhibits the sympathetic activity during more than 30 minutes by more than 30%, then it is qualified as having "central sympathetic-inhibitory activity".
(§2) In the Table which follows, the results obtained with compounds A to H are compiled. The maximum percentage variations from the control values are given.

Series [1] has as its system sympathetic nervous system. The series is described as follows: Central sympathetic-inhibitory activity (cats in urethane narcosis). The settings on record: anaesthetized cat, i.v.; positive if sympathetic activity inhibited >30% for >30 minutes in blood pressure-lowering dosages.
Source text: The central sympathetic-inhibitory activity can be determined according to the following method:
as §1

Series [2] relates to Spontaneously hypertensive rat. Briefly: Cardiovascular activities: systolic blood pressure and heart rate in conscious spontaneously hypertensive rats (p.o.). The settings on record: maximum variation from control. Here is the method: The cardiovascular activities can be determined according to the following method:
The systolic blood pressure and the heart rate are measured several times on conscious, spontaneously hypertensive female rats before the administration of the subtance. Per dosage there are used 5 experimental animals with a body weight of about 300 g. The administration of substance is carried out by means of a stomach probe. Both parameters are measured 1, 3, 6 and 16 hours after the administration and the percentage variation from the control values is calculated. The systolic blood pressure is measured indirectly at the tail artery of the rate according to the method of Gerold et al. (Helv. Physiol. Acta 24, 58-69 (1966); Arzneimittelforschung 18, 1285-1287 (1968).
as §2

Series [3] has as its system electrical stimulation of the dental pulp. Briefly: Activity against an electrical stimulation of the dental pulp in apes, peroral. The settings on record: after peroral administration.
Series [4] relates to morphine-antagonistic activity. Briefly: Morphine-antagonistic activity.
The test system of a further series is α-adrenergic receptor. The series is described as follows: Cancellation of the analgesia by the α-adrenergic receptor blocker yohimbine.
The next series relates to opiate receptor. Briefly: Cancellation of the analgesia by the opiate receptor blocker naloxone.

For `[O-][n+]1ccccc1CON1CCNC1=Nc1cccc(Cl)c1Cl` [B, 2-([{2-[(2,3-Dichlorophenyl)imino]-1-imidazolidinyl}oxy]methyl)pyridine 1-oxide], the ED50 in the series on writhing (mouse) was determined as 1.3 mg/kg. Further, the “Blood pressure, Δ%” value in the series on Anaesthetized cat (1.0 mg/kg (i.v.)) was -5%; in the series with Anaesthetized cat (3.0 mg/kg (i.v.)), -25%; with Anaesthetized cat (10.0 mg/kg (i.v.), (15')) it was -50%; in series [2] (1.0 mg/kg (p.o.)) it was -4.1%; in series [2] (3.0 mg/kg (p.o.)), -7.8%. Further, the “Heart rate, Δ%” value in the series on Anaesthetized cat (1.0 mg/kg (i.v.)) is reported as 0%; in the series with Anaesthetized cat (3.0 mg/kg (i.v.)), -6%; in the series on Anaesthetized cat (10.0 mg/kg (i.v.)) it was -6%; in series [2] (1.0 mg/kg (p.o.)) it was -11.8%; in series [2] (3.0 mg/kg (p.o.)), -8.4%. In addition, the Central sympathetic-inhibitory activity result in series [1] was “none”.
In the case of `CN(C1=NCCN1OCc1cccc[n+]1[O-])c1c(Cl)cccc1Cl` [C, 2-[{[2-(2,6-Dichloro-N-methylanilino)-2-imidazolin-1-yl]oxy}methyl]pyridine 1-oxide], in the series with writhing (mouse), the 50% effect level (ED50) was put at a dose of 26 mg/kg. Further, the “Blood pressure, Δ%” value is -14% in the series on Anaesthetized cat (1.0 mg/kg (i.v.), (5')); -21% with Anaesthetized cat (3.0 mg/kg (i.v.), (10')); -21% with Anaesthetized cat (10.0 mg/kg (i.v.), (10')); “+0.3%” in series [2] (1.0 mg/kg (p.o.)); “+1.2%” in series [2] (3.0 mg/kg (p.o.)); “+2.2%” in series [2] (10.0 mg/kg (p.o.)). Moreover, the “Heart rate, Δ%” value was -6% in the series with Anaesthetized cat (1.0 mg/kg (i.v.)); -22% in the series on Anaesthetized cat (3.0 mg/kg (i.v.), (10')); -22% in the series with Anaesthetized cat (10.0 mg/kg (i.v.), (10')); “+6.3%” in series [2] (1.0 mg/kg (p.o.)); -5.8% in series [2] (3.0 mg/kg (p.o.)); “+3.2%” in series [2] (10.0 mg/kg (p.o.)). The Central sympathetic-inhibitory activity result in series [1] is on record as “none”.
`[O-][n+]1ccccc1CON1CCNC1=Nc1c(Cl)cccc1Cl` [Compound A, 2-([{2-[(2,6-Dichlorophenyl)imino]-1-imidazolidinyl}oxy]methyl)pyridine 1-oxide] registered an ED50 with writhing (mouse) of 3.5 mg/kg. For the same compound, the “activity against an electrical stimulation of the dental pulp, relative to morphine” value in series [3] is recorded as “three-times stronger activity than morphine”. Moreover, the addictive activity result in series [4] (concluded from lack of morphine-antagonistic activity) is “absence of an addictive activity”. The morphine-antagonistic activity result in series [4] (in vivo) is given as “no morphine-antagonistic activity could be found”. Further, the “cancellation of analgesia with yohimbine” value in the series on α-adrenergic receptor was “can be cancelled out”. The “cancellation of analgesia with naloxone” value in the series on opiate receptor was “not with the opiate receptor blocker naloxone”. The “Blood pressure, Δ%” value in the series with Anaesthetized cat (1.0 mg/kg (i.v.)) is -5%; in the series on Anaesthetized cat (3.0 mg/kg (i.v.)), -10%; in the series with Anaesthetized cat (10.0 mg/kg (i.v.)), -10%; in series [2] (1.0 mg/kg (p.o.)), -0.2%; in series [2] (3.0 mg/kg (p.o.)), “+0.3%”; in series [2] (10.0 mg/kg (p.o.)), -3.1%. Moreover, the entries for the “Blood pressure, Δ%” value in series [2] (30.0 mg/kg (p.o.)) and in series [2] (100.0 mg/kg (p.o.)) were -10.5% and 0%, respectively. For the same compound, the “Heart rate, Δ%” value with Anaesthetized cat (1.0 mg/kg (i.v.)) was -5%; with Anaesthetized cat (3.0 mg/kg (i.v.)), -5%; in the series on Anaesthetized cat (10.0 mg/kg (i.v.)), -29%; in series [2] (1.0 mg/kg (p.o.)), “+15.2%”; in series [2] (3.0 mg/kg (p.o.)), “+3.3%”; in series [2] (10.0 mg/kg (p.o.)) it was -9.6%. Besides, the “Heart rate, Δ%” value in series [2] (30.0 mg/kg (p.o.)) is on record as -3.6%; in series [2] (100.0 mg/kg (p.o.)) it was 0%. Further, the Central sympathetic-inhibitory activity entry in series [1] is listed as “none”.
Take `Cc1cc[n+]([O-])c(CON2CCNC2=Nc2c(Cl)cccc2Cl)c1` [D, 2-([{2-[(2,6-Dichlorophenyl)imino]-1-imidazolidinyl}oxy]methyl)-4-methylpyridin 1-oxide]: in the series with writhing (mouse), the ED50 worked out at 16 mg/kg. Also, the “Blood pressure, Δ%” value in the series on Anaesthetized cat (1.0 mg/kg (i.v.), (3')) is recorded as -22%; with Anaesthetized cat (3.0 mg/kg (i.v.)) it was -22%; in series [2] (1.0 mg/kg (p.o.)), -7.0%; in series [2] (3.0 mg/kg (p.o.)), -10.2%; in series [2] (10.0 mg/kg (p.o.)), -12.6%. In addition, the “Heart rate, Δ%” value in the series with Anaesthetized cat (3.0 mg/kg (i.v.)) is -27%; in series [2] (1.0 mg/kg (p.o.)) it was -10.0%; in series [2] (3.0 mg/kg (p.o.)), -7.5%; in series [2] (10.0 mg/kg (p.o.)), -13.3%. In addition, the Central sympathetic-inhibitory activity entry in series [1] is “none”.
As to `CC(ON1CCNC1=Nc1c(Cl)cccc1Cl)c1cc[n+]([O-])cc1` (centres unmarked) [E, 4-(1-[{2-[(2,6-Dichlorophenyl)imino]-1-imidazolidinyl}oxy]ethyl)pyridine1-oxide], in the series on writhing (mouse), the 50% effect level (ED50) was put at a dose of 7.3 mg/kg. Also, the “Blood pressure, Δ%” value was 0% with Anaesthetized cat (1.0 mg/kg (i.v.)); -4% in the series with Anaesthetized cat (3.0 mg/kg (i.v.)); -12% in the series on Anaesthetized cat (10.0 mg/kg (i.v.)); “+10.2%” in series [2] (3.0 mg/kg (p.o.)); -13.9% in series [2] (10.0 mg/kg (p.o.)); “+2.4%” in series [2] (30.0 mg/kg (p.o.)). The “Heart rate, Δ%” value in the series with Anaesthetized cat (1.0 mg/kg (i.v.)) is recorded as 0%; with Anaesthetized cat (3.0 mg/kg (i.v.)) it was 0%; with Anaesthetized cat (10.0 mg/kg (i.v.)) it was -14%; in series [2] (3.0 mg/kg (p.o.)) it was “+4.0%”; in series [2] (10.0 mg/kg (p.o.)) it was -13.2%; in series [2] (30.0 mg/kg (p.o.)) it was -9.9%. In series [1], the Central sympathetic-inhibitory activity entry is on record as “none”.
As for `Cc1ccc(CON2CCNC2=Nc2c(Cl)cccc2Cl)[n+]([O-])c1` [F, 2-([{2-[(2,6-Dichlorophenyl)imino]-1-imidazolidinyl}oxy]methyl)-5-methylpyridin 1-oxide], the ED50 in the series with writhing (mouse) amounted to 27 mg/kg. Also, the “Blood pressure, Δ%” value with Anaesthetized cat (1.0 mg/kg (i.v.)) is on record as 0%; in the series with Anaesthetized cat (3.0 mg/kg (i.v.)) it was 0%; in the series on Anaesthetized cat (10.0 mg/kg (i.v.)), 0%; in series [2] (1.0 mg/kg (p.o.)) it was -9.6%; in series [2] (3.0 mg/kg (p.o.)), -10.4%. Further, the “Heart rate, Δ%” value is 0% in the series with Anaesthetized cat (1.0 mg/kg (i.v.)); 0% in the series on Anaesthetized cat (3.0 mg/kg (i.v.)); -10% in the series on Anaesthetized cat (10.0 mg/kg (i.v.)); -4.9% in series [2] (1.0 mg/kg (p.o.)); -5.5% in series [2] (3.0 mg/kg (p.o.)). In addition, the Central sympathetic-inhibitory activity result in series [1] is “none”.
With `Cc1cccc(CON2CCNC2=Nc2c(Cl)cccc2Cl)[n+]1[O-]` [G, 2-([{2-[(2,6-Dichlorophenyl)imino]-1-imidazolidinyl}oxy]methyl)-6-methylpyridin 1-oxide], the ED50 in the series with writhing (mouse) was 16 mg/kg. Also, the “Blood pressure, Δ%” value in the series with Anaesthetized cat (1.0 mg/kg (i.v.)) is listed as -4%; in the series on Anaesthetized cat (3.0 mg/kg (i.v.)) it was -4%; in the series on Anaesthetized cat (10.0 mg/kg (i.v.)), -15%; in series [2] (10.0 mg/kg (p.o.)), -12.0%. Besides, the “Heart rate, Δ%” value in the series with Anaesthetized cat (1.0 mg/kg (i.v.)) is reported as 0%; in the series with Anaesthetized cat (3.0 mg/kg (i.v.)) it was -4%; in the series on Anaesthetized cat (10.0 mg/kg (i.v.)), -13%; in series [2] (10.0 mg/kg (p.o.)), -22.6%. In addition, the Central sympathetic-inhibitory activity entry in series [1] is reported as “none”.
For the compound `[O-][n+]1ccc(O)cc1CON1CCNC1=Nc1c(Cl)cccc1Cl` [H, 2-([{2-[(2,6-Dichlorophenyl)imino]-1-imidazolidinyl}oxy]methyl)-4-pyridinol 1-oxide], the 50% effect level in the series on writhing (mouse) (ED50) was put at a dose of 8.7 mg/kg. Besides, the “Blood pressure, Δ%” value is recorded as -12% with Anaesthetized cat (1.0 mg/kg (i.v.)); -27% in the series on Anaesthetized cat (3.0 mg/kg (i.v.), (10')); -62% with Anaesthetized cat (10.0 mg/kg (i.v.), (10')). Further, the “Heart rate, Δ%” value in the series with Anaesthetized cat (1.0 mg/kg (i.v.)) is given as 0%; in the series on Anaesthetized cat (3.0 mg/kg (i.v.)) it was -2%; in the series on Anaesthetized cat (10.0 mg/kg (i.v.), (10')), -18%. The Central sympathetic-inhibitory activity entry in series [1] is listed as “none”.

One may read the ED50 as the midpoint of the dose-response relation. Low values mean an effect at a small dose, high ones a need for a large dose.
